Results reported in the NIST ThermoML archive (doi:10.1021/acs.jced.6b00893).
Numbers after ± are expanded uncertainties.

Details: Liquid, Ebulliometric method (Recirculating still)

## C=CCO [2-propenol]
369.75 K
  vapor or sublimation pressure: 101.3 ± 0.5 kPa

## c1ccccc1 [benzene]
353.25 K
  vapor or sublimation pressure: 101.3 ± 0.5 kPa

## O [water]
373.15 K
  vapor or sublimation pressure: 101.3 ± 0.5 kPa
